Assays:
[1] = test system: human normal retinal cells ARPE-19; assay: MTT assay on human retinal cells; format: cell-based; conditions: Homo sapiens, ARPE-19; MTT; read-out: Inhibitory activity (IC50) ARPE-19
[2] = test system: human brain microvascular endothelial cells (HCMEC/D3); assay: MTT assay on human neovascular cells; format: cell-based; conditions: Homo sapiens, hCMEC/D3; MTT; read-out: Inhibitory activity (IC50) HCMEC-D3
[3] = test system: human cerebrovascular pericytes (HBVP); assay: MTT assay on human neovascular cells; format: cell-based; conditions: Homo sapiens; MTT; read-out: Inhibitory activity (IC50) HBVP
ABL1 = ABL1 (Homo sapiens (Human), UniProt P00519); assay: Caliper Mobility Shift kinase inhibition test; format: biochemical; conditions: 100 nM; for inhibition at 0.1 µM: read-out: inhibitory rate on ABL1
Protocol: (§1) The method adopted in the test was Caliper Mobility Shift Assay, which was a detection platform based on the mobility detection technology of microfluidic chip technology. […] Collected data was tested on Caliper to yield that inhibition ratio to kinase activity=(max−conversion)/(max−min)×100. “max” was DMSO control without adding compound, and “min” was low control. When IC50 was determined, each sample was provided with 10 dilutions, each with 2 multiple holes, and repeated for 3 times.

FGFR2 = FGFR2 (Homo sapiens (Human), UniProt P21802); assay: Caliper Mobility Shift kinase inhibition test; format: biochemical
Protocol: (§2) The method adopted in the test was Caliper Mobility Shift Assay, which was a detection platform based on the mobility detection technology of microfluidic chip technology. Test steps: 1.25× kinase reaction buffer (62.5 mmol/L HEPES, pH 7.5; 0.001875% Brij-35; 12.5 mmol/L MgCl2; 2.5 mM DTT) and kinase reaction stop solution (100 mmol/L HEPES, pH 7.5; 0.015% Brij-35; 0.2% Coating Reagent #3) were configured. […] Collected data was tested on Caliper to yield that inhibition ratio to kinase activity=(max−conversion)/(max−min)×100. “max” was DMSO control without adding compound, and “min” was low control. When IC50 was determined, each sample was provided with 10 dilutions, each with 2 multiple holes, and repeated for 3 times.
(§3) According to the above-mentioned method for measuring kinase inhibitory activity, the inhibitory activity of the active compounds on other multiple kinases was measured to characterize the kinase selectivity of active inhibitors.

JAK1 = JAK1 (Homo sapiens (Human), UniProt P23458); assay: Caliper Mobility Shift kinase inhibition test; format: biochemical
Protocol: as §2, §3

PDGFRβ = PDGFRβ (Homo sapiens (Human), UniProt P09619); assay: Caliper Mobility Shift kinase inhibition test; format: biochemical; conditions: for inhibition at 0.1 µM / inhibitory rate on PDGFR-β: 100 nM; for inhibition at 0.1 µM: read-out: inhibitory rate on PDGFR-β; for IC50: read-out: IC50 PDGFR-β
Protocol: as §2, §3

ALK = ALK (Homo sapiens (Human), UniProt Q9UM73); assay: Caliper Mobility Shift kinase inhibition test; format: biochemical
Protocol: as §2

FLT3 = FLT3 (Homo sapiens (Human), UniProt P36888); assay: Caliper Mobility Shift kinase inhibition test; format: biochemical; conditions: 100 nM; for inhibition at 0.1 µM: read-out: inhibitory rate on FLT3
Protocol: as §2

IKK β = IKK β (Homo sapiens (Human), UniProt O14920); assay: Caliper Mobility Shift kinase inhibition test; format: biochemical
Protocol: as §2

MG-63 osteosarcoma cells = assay: MTT assay on osteosarcoma cells; format: cell-based; conditions: Homo sapiens, 48 hours, read-out: Inhibitory activity (IC50) MG-63
Protocol: (§4) Logarithmic osteosarcoma cells were inoculated into a 96-well plate with a cell concentration of 1,500 cell/well for 6 hours by using MTT assay, and each well was filled with 200 μL of cell suspension. […] The samples were cultured in an incubator for 48 hours (37° C., 5% CO2), and 20 v L of MTT (3-(4,5-dimethylthiazole-2)-2,5-diphenyltetrazole) were added into each hole. After continuous culture for 4 hours, the culture solution was discarded by suction, and 200 v L of DMSO were added to each well. […] Calculation method of IC50 value: the IC50 values of the samples were calculated by curve fitting with GraphPad Prism software.

[4] = test system: MNNG/HOS osteosarcoma cells; assay: MTT assay on osteosarcoma cells; format: cell-based; conditions: 48 hours, read-out: Inhibitory activity (IC50) MNNG/HOS
Protocol: as §4

[5] = test system: SAOS-2 osteosarcoma cells; assay: MTT assay on osteosarcoma cells; format: cell-based; conditions: Homo sapiens, 48 hours, read-out: Inhibitory activity (IC50) SAOS-2
Protocol: as §4

U2OS osteosarcoma cells = assay: MTT assay on osteosarcoma cells; format: cell-based; conditions: Homo sapiens, 48 hours, read-out: Inhibitory activity (IC50) U2OS
Protocol: as §4

PDGFRα = PDGFRα (Homo sapiens (Human), UniProt P16234); assay: Caliper Mobility Shift kinase inhibition test; format: biochemical; conditions: read-out: inhibitory rate on PDGFR-α, 100 nM
Protocol: as §1

Sequence of IKK β (O14920 whole entry, species assumed): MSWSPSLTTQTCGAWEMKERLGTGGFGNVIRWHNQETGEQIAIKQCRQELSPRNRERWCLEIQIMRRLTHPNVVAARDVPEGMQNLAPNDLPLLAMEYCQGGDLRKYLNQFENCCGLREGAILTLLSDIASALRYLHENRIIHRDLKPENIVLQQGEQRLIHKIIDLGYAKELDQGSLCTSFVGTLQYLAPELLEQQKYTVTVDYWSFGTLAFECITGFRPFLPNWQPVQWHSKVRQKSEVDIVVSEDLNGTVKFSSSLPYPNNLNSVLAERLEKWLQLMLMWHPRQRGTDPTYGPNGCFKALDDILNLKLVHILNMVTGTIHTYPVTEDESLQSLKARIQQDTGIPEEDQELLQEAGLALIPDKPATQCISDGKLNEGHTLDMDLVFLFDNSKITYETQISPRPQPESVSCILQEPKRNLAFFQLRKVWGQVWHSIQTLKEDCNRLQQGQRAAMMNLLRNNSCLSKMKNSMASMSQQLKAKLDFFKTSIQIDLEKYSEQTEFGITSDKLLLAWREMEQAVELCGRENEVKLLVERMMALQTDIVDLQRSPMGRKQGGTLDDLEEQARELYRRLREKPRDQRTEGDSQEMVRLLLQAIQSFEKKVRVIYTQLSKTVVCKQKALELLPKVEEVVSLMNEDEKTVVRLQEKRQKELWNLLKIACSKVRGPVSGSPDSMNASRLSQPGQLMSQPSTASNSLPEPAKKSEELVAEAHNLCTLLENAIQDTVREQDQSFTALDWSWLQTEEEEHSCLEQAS
Sequence of FGFR2 (P21802 22-821, species assumed): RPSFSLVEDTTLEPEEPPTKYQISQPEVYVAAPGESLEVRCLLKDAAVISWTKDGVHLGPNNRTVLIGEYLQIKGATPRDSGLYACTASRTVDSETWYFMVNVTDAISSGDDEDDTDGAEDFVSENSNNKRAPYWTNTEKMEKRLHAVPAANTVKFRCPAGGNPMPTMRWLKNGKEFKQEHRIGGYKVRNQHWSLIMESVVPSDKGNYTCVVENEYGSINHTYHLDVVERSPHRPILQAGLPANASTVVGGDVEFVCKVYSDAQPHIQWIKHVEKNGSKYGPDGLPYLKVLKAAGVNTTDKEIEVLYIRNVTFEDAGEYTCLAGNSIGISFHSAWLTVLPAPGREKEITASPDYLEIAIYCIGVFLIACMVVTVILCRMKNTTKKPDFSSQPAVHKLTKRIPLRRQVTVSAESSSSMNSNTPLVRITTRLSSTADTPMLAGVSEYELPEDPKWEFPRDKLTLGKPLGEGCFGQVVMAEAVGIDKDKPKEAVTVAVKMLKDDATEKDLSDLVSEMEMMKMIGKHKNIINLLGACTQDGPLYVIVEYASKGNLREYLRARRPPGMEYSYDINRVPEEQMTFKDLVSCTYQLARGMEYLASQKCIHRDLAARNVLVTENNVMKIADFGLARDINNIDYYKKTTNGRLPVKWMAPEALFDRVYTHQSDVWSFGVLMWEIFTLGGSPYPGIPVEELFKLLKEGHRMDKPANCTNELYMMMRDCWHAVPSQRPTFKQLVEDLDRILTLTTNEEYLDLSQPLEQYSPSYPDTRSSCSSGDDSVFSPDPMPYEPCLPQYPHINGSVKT
Sequence of FLT3 (P36888 27-993): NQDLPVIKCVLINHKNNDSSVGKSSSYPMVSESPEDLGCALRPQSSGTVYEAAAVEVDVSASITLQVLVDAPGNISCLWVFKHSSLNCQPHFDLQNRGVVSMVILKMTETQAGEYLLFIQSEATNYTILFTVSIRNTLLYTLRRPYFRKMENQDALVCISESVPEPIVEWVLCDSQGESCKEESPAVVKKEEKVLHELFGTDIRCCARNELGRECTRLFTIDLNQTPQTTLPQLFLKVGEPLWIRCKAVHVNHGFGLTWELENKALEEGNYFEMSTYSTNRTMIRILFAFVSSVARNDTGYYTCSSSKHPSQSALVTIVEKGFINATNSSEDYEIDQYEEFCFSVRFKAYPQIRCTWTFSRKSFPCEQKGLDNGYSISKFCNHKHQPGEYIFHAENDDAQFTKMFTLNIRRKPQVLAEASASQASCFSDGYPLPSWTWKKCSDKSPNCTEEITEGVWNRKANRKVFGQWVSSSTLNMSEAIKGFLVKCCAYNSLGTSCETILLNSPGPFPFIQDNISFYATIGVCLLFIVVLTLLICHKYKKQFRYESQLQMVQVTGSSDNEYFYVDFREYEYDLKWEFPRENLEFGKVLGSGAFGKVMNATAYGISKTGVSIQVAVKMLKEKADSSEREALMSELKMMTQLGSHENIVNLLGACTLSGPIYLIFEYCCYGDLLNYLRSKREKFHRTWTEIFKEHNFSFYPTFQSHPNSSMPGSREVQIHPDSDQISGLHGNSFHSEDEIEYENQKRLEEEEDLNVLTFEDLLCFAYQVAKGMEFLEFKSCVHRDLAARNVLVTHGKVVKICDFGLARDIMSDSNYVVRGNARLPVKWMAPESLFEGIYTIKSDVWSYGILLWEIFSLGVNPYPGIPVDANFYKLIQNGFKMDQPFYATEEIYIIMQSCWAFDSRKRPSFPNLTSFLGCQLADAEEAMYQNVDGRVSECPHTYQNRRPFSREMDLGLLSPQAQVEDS
Sequence of JAK1 (P23458 whole entry, species assumed): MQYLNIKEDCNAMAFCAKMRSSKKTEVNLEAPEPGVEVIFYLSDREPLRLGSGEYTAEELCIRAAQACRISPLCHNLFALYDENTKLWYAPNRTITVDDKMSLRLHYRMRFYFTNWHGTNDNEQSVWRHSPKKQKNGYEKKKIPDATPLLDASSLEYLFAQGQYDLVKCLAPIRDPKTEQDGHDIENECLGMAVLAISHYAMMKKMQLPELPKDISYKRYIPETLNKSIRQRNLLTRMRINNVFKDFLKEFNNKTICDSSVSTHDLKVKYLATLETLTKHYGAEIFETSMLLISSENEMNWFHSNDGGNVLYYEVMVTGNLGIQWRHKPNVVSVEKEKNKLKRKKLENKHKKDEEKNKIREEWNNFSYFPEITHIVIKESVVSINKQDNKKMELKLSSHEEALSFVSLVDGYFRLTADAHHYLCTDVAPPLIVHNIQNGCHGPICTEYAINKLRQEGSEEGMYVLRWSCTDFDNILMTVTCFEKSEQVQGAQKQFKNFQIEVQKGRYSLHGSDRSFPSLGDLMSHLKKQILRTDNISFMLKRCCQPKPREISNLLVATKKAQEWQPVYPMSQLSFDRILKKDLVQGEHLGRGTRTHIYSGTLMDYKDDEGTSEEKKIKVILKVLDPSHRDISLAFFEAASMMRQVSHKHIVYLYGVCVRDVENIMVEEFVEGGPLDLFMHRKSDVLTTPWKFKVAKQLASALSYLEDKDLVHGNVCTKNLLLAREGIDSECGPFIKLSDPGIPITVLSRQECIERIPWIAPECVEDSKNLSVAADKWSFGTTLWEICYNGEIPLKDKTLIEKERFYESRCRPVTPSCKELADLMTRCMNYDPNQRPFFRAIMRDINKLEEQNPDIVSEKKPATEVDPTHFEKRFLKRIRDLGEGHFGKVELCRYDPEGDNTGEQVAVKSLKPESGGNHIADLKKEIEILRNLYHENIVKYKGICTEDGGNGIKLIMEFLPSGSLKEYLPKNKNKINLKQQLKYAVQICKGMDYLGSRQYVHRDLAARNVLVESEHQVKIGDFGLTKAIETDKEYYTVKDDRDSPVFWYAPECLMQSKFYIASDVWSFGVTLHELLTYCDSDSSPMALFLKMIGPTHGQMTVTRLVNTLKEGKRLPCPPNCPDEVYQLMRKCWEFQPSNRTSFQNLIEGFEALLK
Sequence of PDGFRβ (P09619 33-1106): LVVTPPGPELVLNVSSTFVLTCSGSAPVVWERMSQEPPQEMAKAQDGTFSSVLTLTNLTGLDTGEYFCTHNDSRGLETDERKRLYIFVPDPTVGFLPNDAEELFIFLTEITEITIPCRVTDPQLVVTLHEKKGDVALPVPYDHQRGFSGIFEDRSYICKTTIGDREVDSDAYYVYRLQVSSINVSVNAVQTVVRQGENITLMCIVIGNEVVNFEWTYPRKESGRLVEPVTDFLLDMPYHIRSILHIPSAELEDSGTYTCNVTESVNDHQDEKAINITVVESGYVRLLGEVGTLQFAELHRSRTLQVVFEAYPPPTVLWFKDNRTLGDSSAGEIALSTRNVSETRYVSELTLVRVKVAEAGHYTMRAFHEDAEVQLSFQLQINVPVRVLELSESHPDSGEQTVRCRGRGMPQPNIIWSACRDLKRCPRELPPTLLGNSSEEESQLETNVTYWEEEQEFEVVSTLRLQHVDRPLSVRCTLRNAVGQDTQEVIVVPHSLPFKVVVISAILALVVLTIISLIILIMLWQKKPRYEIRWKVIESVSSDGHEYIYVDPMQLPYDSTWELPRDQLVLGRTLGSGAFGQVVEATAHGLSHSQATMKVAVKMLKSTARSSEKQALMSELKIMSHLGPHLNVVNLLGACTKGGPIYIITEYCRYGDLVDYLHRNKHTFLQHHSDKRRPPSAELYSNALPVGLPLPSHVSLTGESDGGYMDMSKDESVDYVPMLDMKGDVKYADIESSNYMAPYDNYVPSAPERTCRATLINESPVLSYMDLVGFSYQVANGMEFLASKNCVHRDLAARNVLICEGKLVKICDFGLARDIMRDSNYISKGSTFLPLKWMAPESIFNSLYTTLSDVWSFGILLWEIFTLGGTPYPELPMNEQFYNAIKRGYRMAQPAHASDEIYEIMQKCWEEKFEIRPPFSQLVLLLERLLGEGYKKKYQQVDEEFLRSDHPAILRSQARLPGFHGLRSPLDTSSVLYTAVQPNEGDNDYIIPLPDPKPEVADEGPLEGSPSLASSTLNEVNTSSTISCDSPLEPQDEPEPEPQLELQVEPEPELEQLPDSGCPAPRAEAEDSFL

Compound | inhibition at 0.1 µM (ABL1) [%] | IC50 (FGFR2) [µM] | IC50 (JAK1) [µM] | inhibition at 0.1 µM (PDGFRβ) [%] | IC50 (PDGFRβ) [µM] | IC50 (ALK) [µM] | inhibition at 0.1 µM (FLT3) [%] | IC50 (IKK β) [µM] | inhibitory rate on ABL1 (ABL1) [%] | inhibitory rate on PDGFR-β (PDGFRβ) [%] | inhibitory rate on FLT3 (FLT3) [%] | inhibition at 0.1 µM (PDGFRα) [%] | IC50 [1] [µM] | IC50 [2] [µM] | IC50 [3] [µM] | inhibitory activity on PDGFRβ (in words) (PDGFRβ) | IC50 (MG-63 osteosarcoma cells) [µM] | IC50 [4] [µM] | IC50 [5] [µM] | IC50 (U2OS osteosarcoma cells) [µM]
Cc1[nH]c(/C=C2\C(=O)Nc3ccc(F)cc32)c(C)c1C(=O)N[C@H]1CCN(C(=O)N(C)C)C1 [Vorolanib, reference compound] | – | – | – | – | – | – | – | – | – | – | – | – | 56.2 ± 3.23 | 34.3 ± 0.885 | 18.5 ± 10.5 | – | – | – | – | –
COc1cc(Nc2ncc(C)c(Nc3ccc4cn[nH]c4c3)n2)ccc1N1CCN(C)CC1 [Compound 6f, N^4-(1H-indazol-6-yl)-N^2-(3-methoxy-4-(4-methylpiperazine-1-yl)phenyl)-5-methylpyrimidine-2,4-diamine] | 98 | 0.061 | 0.031 | 97 | 0.0026 | 0.011 | 97.8 | > 1 | – | – | – | – | – | – | – | significant inhibitory activities | 0.841 ± 0.005 | 1.36 ± 0.019 | 0.72 ± 0.025 | 0.756 ± 0.001
Cc1ccc(Nc2nccc(N(C)c3ccc4c(C)n(C)nc4c3)n2)cc1S(N)(=O)=O [Pazopanib, reference compound] | – | – | – | 76.7 | – | – | 80.6 | – | – | – | – | 96.9 | – | – | – | – | > 100 | 8.52 ± 0.868 | > 100 | > 100
Cc1cnc(Nc2ccc(N3CCC(N4CCN(C)CC4)CC3)cc2)nc1Nc1ccc2cn[nH]c2c1 [Compound 6j, N^4-(1H-indazol-6-yl)-5-methyl-N^2-(4-(4-(4-methylpiperazine-1-y 1)piperidine-1-yl)phenyl)pyrimidine-2,4-diamine] | – | 0.089 | 0.014 | – | 0.012 | 0.023 | – | > 1 | 87.6 | 85.4 | 91.0 | – | – | – | – | – | – | – | – | –
CNC(=O)c1cc(Oc2ccc(NC(=O)Nc3ccc(Cl)c(C(F)(F)F)c3)cc2)ccn1 [Sorafenib, reference compound] | – | – | – | – | – | – | – | – | – | – | – | – | 23.29 ± 0.143 | 6.32 ± 0.73 | 9.92 ± 0.598 | – | – | – | – | –

Second part, led by results:

inhibition at 0.1 µM (ABL1) [%] | IC50 (FGFR2) [µM] | IC50 (JAK1) [µM] | inhibition at 0.1 µM (PDGFRβ) [%] | IC50 (PDGFRβ) [µM] | IC50 (ALK) [µM] | inhibition at 0.1 µM (FLT3) [%] | IC50 (IKK β) [µM] | inhibitory rate on ABL1 (ABL1) [%] | inhibitory rate on PDGFR-β (PDGFRβ) [%] | inhibitory rate on FLT3 (FLT3) [%] | inhibition at 0.1 µM (PDGFRα) [%] | Compound | IC50 [1] [µM] | IC50 [2] [µM] | IC50 [3] [µM] | inhibitory activity on PDGFRβ (in words) (PDGFRβ) | IC50 (MG-63 osteosarcoma cells) [µM] | IC50 [4] [µM] | IC50 [5] [µM] | IC50 (U2OS osteosarcoma cells) [µM]
78.8 | > 1 | 0.199 | 63.4 | 0.072 | 0.007 | 79.5 | > 1 | – | – | – | – | COc1cc(N2CCN(C)CC2)ccc1Nc1ncc(C)c(Nc2ccc3cn[nH]c3c2)n1 [Compound 6e, N^4-(1H-indazol-6-yl)-N^2-(2-methoxy-4-(4-methylpiperazine-1-yl)phenyl)-5-methylpyrimidine-2,4-diamine] | – | – | – | – | – | – | – | –
– | 0.54 | 0.072 | – | 0.103 | 0.476 | – | > 1 | 50.6 | 48.5 | 74.6 | – | Cc1cnc(Nc2ccc(N3CCC(F)(F)CC3)cc2)nc1Nc1ccc2cn[nH]c2c1 [Compound 6c] | – | – | – | – | – | – | – | –
87.5 | > 1 | 0.32 | 80.2 | 0.04 | 0.0058 | 82.6 | > 1 | – | – | – | – | CCN1CCN(c2ccc(Nc3ncc(C)c(Nc4ccc5cn[nH]c5c4)n3)c(OC)c2)CC1 [Compound 6h, N^2-(4-(4-ethylpiperazine-1-yl)-2-methoxyphenyl)-N^4-(1H-indazol-6-yl)-5-methylpyrimidine-2,4-diamine] | – | – | – | – | – | – | – | –
– | 0.102 | 0.006 | – | 0.019 | 0.095 | – | 0.181 | 81.2 | 82.4 | 82.3 | – | Cc1cnc(Nc2ccc(C(=O)NCCN3CCOCC3)cc2)nc1Nc1ccc2cn[nH]c2c1 [Compound 6n] | – | – | – | – | – | – | – | –
– | 0.081 | 0.013 | – | 0.0088 | 0.026 | – | 0.595 | 89.6 | 93.8 | 87.6 | – | Cc1cnc(Nc2ccc(N3CCN(C)CC3)cc2)nc1Nc1ccc2cn[nH]c2c1 [Compound 6g, N^4-(1H-indazol-6-yl)-5-methyl-N^2-(4-(4-methylpiperazine-1-yl)phenyl)pyrimidine-2,4-diamine] | – | – | – | significant inhibitory activities | – | – | – | –

Source: patent US20230312529A1, “PYRIMIDINE SMALL-MOLECULE COMPOUND AND APPLICATION THEREOF” (WENZHOU MEDICAL UNIVERSITY, priority 2021, published 2023)
